Measurements as given in ChEMBL document CHEMBL4819080, “Cannabidiol-dihydroartemisinin conjugates for ameliorating neuroinflammation with reduced cytotoxicity” (Bioorg Med Chem, 2021).
Activity calls are given as the source filed them. The calls are words filed in the database; no cut-off is given here.

Assays:
BV-2 [1] = assay: Cytotoxicity against mouse BV-2 cells assessed as reduction in cell viability upto 200 uM incubated for 24 hrs by crystal violet dye based assay; conditions: bv-2, 24 h
BV-2 [2] = assay: Antiinflammatory activity in mouse BV-2 cells assessed as reduction in LPS-induced iNOS mRNA expression at 100 uM incubated for 6 hrs by qRT-PCR analysis; format: functional, cell-based
BV-2 [3] = assay: Antiinflammatory activity in mouse BV-2 cells assessed as reduction in LPS-induced nitric oxide production incubated for 24 hrs by 2, 3-diaminonaphthalene based assay; format: functional, cell-based
BV-2 [4] = assay: Antiinflammatory activity in mouse BV-2 cells assessed as reduction in LPS-induced IL-1beta mRNA expression at 100 uM incubated for 6 hrs by qRT-PCR analysis; format: functional, cell-based
BV-2 [5] = assay: Cytotoxicity against mouse BV-2 cells assessed as reduction in cell viability incubated for 24 hrs by crystal violet dye based assay; conditions: BV-2, 24 h
BV-2 [6] = assay: Antiinflammatory activity in mouse BV-2 cells assessed as reduction in LPS-induced nitric oxide production incubated for 24 hrs in presence of DHA by 2, 3-diaminonaphthalene based assay; format: functional, cell-based
BV-2 [7] = assay: Cytotoxicity against mouse BV-2 cells assessed as reduction in cell viability incubated for 24 hrs in presence of DHA by crystal violet dye based assay; conditions: bv-2, 24 h
BV-2 [8] = assay: Inhibition of LPS-induced NF-kappaB activation in mouse BV-2 cells assessed as reduction in IRAK1 phosphorylation at 100 uM incubated for 1 hr by Western blot analysis; format: cell-based
BV-2 [9] = assay: Inhibition of LPS-induced NF-kappaB activation in mouse BV-2 cells expressing luciferase gene at 5 to 100 uM incubated for 24 hrs by steady-glo luciferase assay; format: cell-based; conditions: dose 5-100 µM
BV-2 [10] = assay: Inhibition of LPS-induced NF-kappaB activation in mouse BV-2 cells assessed as reduction in NF-kappaB p65 phosphorylation at 100 uM incubated for 1 hr by Western blot analysis; format: cell-based
BV-2 [11] = assay: Inhibition of LPS-induced MAPK activation in mouse BV-2 cells assessed as reduction in ERK phosphorylation at 100 uM incubated for 1 hr by Western blot analysis; format: cell-based
BV-2 [12] = assay: Inhibition of LPS-induced NF-kappaB activation in mouse BV-2 cells assessed as reduction in IKKalpha/beta phosphorylation at 100 uM incubated for 1 hr by Western blot analysis; format: cell-based
BV-2 [13] = assay: Antiinflammatory activity in mouse BV-2 cells assessed as reduction in LPS-induced IL-1beta mRNA expression incubated for 6 hrs by qRT-PCR analysis; format: functional, cell-based; conditions: dose 20-100 µM
BV-2 [14] = assay: Inhibition of LPS-induced MAPK activation in mouse BV-2 cells assessed as reduction in JNK phosphorylation at 100 uM incubated for 1 hr by Western blot analysis; format: cell-based
BV-2 [15] = assay: Antiinflammatory activity in mouse BV-2 cells assessed as reduction in LPS-induced iNOS mRNA expression incubated for 6 hrs by qRT-PCR analysis; format: functional, cell-based; conditions: dose 20-100 µM
BV-2 [16] = assay: Inhibition of LPS-induced MAPK activation in mouse BV-2 cells assessed as reduction in p38 phosphorylation at 100 uM incubated for 1 hr by Western blot analysis; format: cell-based
[17] = Mus musculus, BV-2, 24 h, read-out: IC50

Structure (SMILES)	Activity (BV-2 [1])	inhibition (BV-2 [2])	inhibition (BV-2 [4])	IC50 (BV-2 [3]; [17]) [µM]	IC50 (BV-2 [5]) [µM]	inhibition (BV-2 [3])	also measured
C=C(C)[C@@H]1CCC(C)=C[C@H]1c1c(O)cc(CCCCC)cc1OCCCCO[C@H]1O[C@@H]2O[C@]3(C)CC[C@H]4[C@H](C)CC[C@@H]([C@H]1C)[C@@]24OO3	Non-Toxic	inactive	inactive				IC50 (BV-2 [3]; bv-2): Not Active
C[C@H]1[C@@H](O)O[C@@H]2O[C@@]3(C)CC[C@H]4[C@H](C)CC[C@@H]1[C@@]24OO3 [ARTENIMOL]				7.4	120		
C=C(C)[C@@H]1CCC(C)=C[C@H]1c1c(O)cc(CCCCC)cc1OCCO[C@H]1O[C@@H]2O[C@]3(C)CC[C@H]4[C@H](C)CC[C@@H]([C@H]1C)[C@@]24OO3	Non-Toxic	inactive	inactive	55		Dose-Dependent Effect	
C=C(C)[C@@H]1CCC(C)=C[C@H]1c1c(O)cc(CCCCC)cc1O [CANNABIDIOL]				10.3	8		inhibition (BV-2 [6]): Active; Activity (BV-2 [7]): Toxic
C=C(C)[C@@H]1CCC(C)=C[C@H]1c1c(O)cc(CCCCC)cc1OCCCO[C@H]1O[C@@H]2O[C@]3(C)CC[C@H]4[C@H](C)CC[C@@H]([C@H]1C)[C@@]24OO3	Non-Toxic			11.7		Dose-Dependent Effect	inhibition (BV-2 [8]): Active; inhibition (BV-2 [9]): Active; inhibition (BV-2 [10]): Active; inhibition (BV-2 [11]): inactive; inhibition (BV-2 [12]): Active; inhibition (BV-2 [13]): Dose-Dependent Effect; inhibition (BV-2 [14]): inactive; inhibition (BV-2 [15]): Dose-Dependent Effect; inhibition (BV-2 [16]): inactive
